Measured values as given in patent US5314901A, “1,2,5,6-tetrahydropyridine oxime compounds” (Beecham Group p.l.c., priority 1990, dated 1994).
Where a name gives a salt, the structure may show the parent alone.

Legend:
[1] = target: muscarinic receptors (3H-QNB), cerebral cortex; assay: Radio ligand binding: displacement of the muscarinic antagonist 3H-Quinuclidinyl Benzilate (3H-QNB) from rat cerebral cortex membranes; set-up: species or system Hooded Lister rats; conditions: displacement of 0.27 nM 3H-QNB (muscarinic antagonist), 37° C., 30 min
[2] = target: muscarinic receptors (3H-OXO-M), cerebral cortex; assay: Radio ligand binding: displacement of the muscarinic agonist 3H-Oxotremorine-M (3H-OXO-M) from rat cerebral cortex membranes; set-up: species or system Hooded Lister rats; conditions: displacement of 2 nM 3H-OXO-M (muscarinic agonist), 2 mM magnesium chloride, 37° C., 30 min

| IC50 [1] [µM] | IC50 [2] [nM] | Compound |
| --- | --- | --- |
| 2.8 | 259 | CON=C(Cl)C1=CCCN(C)C1 [E 1, 1-Methyl-1,2,5,6-tetrahydropyridin-3-yl-N-methoxycarboximidoyl chloride oxalate salt] |
| 1.5 | 39 | CON=C(F)C1=CCCN(C)C1 [E 2, 1-Methyl-1,2,5,6-tetrahydropyridin-3-yl-N-methoxycarboximidoyl fluoride oxalate salt] |
| 9.5 | 215 | CON=C(C#N)C1=CCCN(C)C1 [E 3, α-(Methoxyimino)-α-(1-methyl-1,2,5,6-tetrahydropyridin-3-yl) acetonitrile oxalate salt] |
| 16.5 | 225 | CON=C(C1=CCCN(C)C1)C(F)(F)F [E 4, E- and Z-1-Methyl-3-(α,α,α-trifluoroacetyl)-1,2,5,6-tetrahydropyridine-O-methyl oxime oxalate salt] |
| – | 1250 | CON=C(C1=CCCN(C)C1)C(F)F [E 5, E- and Z-1-Methyl-3-(α,α-difluoroacetyl)-1,2,5,6-tetrahydropyridine-O-methyl oxime oxalate salt] |
| 8.5 | 620 | CO/N=C(\CF)C1=CCCN(C)C1 [E 6, Z-1-Methyl-3-(α-fluoroacetyl)-1,2,5,6-tetrahydropyridine-O-methyl oxime oxalate salt] |
| 17 | 420 | CO/N=C(\CF)C1=CCCNC1 [E 7, Z-3-(α-Fluoroacetyl)-1,2,5,6-tetrahydropyridine-O-methyl oxime hydrochloride salt] |
| 2.85 | 41 | CON=C(F)C1=CCCNC1 [E 8, 1,2,5,6-Tetrahydropyridin-3-yl-N-methoxycarboximidoyl fluoride oxalate salt] |
| 1.15 | 35 | CON=C(C#N)C1=CCCNC1 [E 10, α-(Methoxyimino)-α-(1,2,5,6-tetrahydropyridin-3-yl)acetonitrileoxalate salt] |
| – | 1180 | CCN1CCC=C(C(C#N)=NOC)C1 [E 11, α-(Methoxyimino)-α-(1-ethyl-1,2,5,6-tetrahydropyridin-3-yl) acetonitrile oxalate salt] |

| Compound | IC50 [1] [µM] | IC50 [2] [nM] |
| --- | --- | --- |
| CON=C(Cl)C1=CCCNC1 [E 9, 1,2,5,6-Tetrahydropyridin-3-yl-N-methoxycarboximidoyl chloride oxalate salt] | 4.7 | 180 |
